Assay results taken from PMC7064328 (Environmental Health Perspectives, 2020).

Tests used:
[1] = Maternal indices: dam body weight, gestational weight gain, liver and kidney weight after daily oral gavage E1.5 to E11.5 or E17.5; assay type: in vivo, mouse (CD-1); settings: female, CD-1, mouse, in vivo, oral; dam systemic toxicity: liver alterations, higher GWG, placental lesions; read-out: Lowest dose group evaluated, with significant adverse effects (no NOAEL reportable)
Method: Naïve female CD-1 mice between 7.5 and 15.5 wk of age from the NIEHS colony were bred in-house on a single night, and copulatory plug–positive females were identified on embryonic day (E) 0.5. Pregnant dams were singly housed in ventilated polypropylene cages and received nesting materials, National Institutes of Health (NIH)-31 diet (Zeigler Bros., Inc.) and reverse osmosis deionized (RODI) water ad libitum. Animals were housed in humidity- and temperature-controlled rooms with 25°C and 45–60% average humidity and standard 12-h light cycles. All animal procedures were approved by the NIEHS Animal Care and Use Committee (ASP #2017-0022).
PFOA and GenX dosing solutions were prepared in RODI water and administered to mice once daily via oral gavage. Daily doses were administered between 0700 and 0800 hours and adjusted to the BW of the mouse based on the previous day’s weight at a volume of 0.01mL/g BW. […] The dose of 1mg/kg BW/d PFOA, used in the mouse developmental toxicity study of [Lau et al. 2006], provided a lowest effect dose that was used to set the reference dose within the U.S. EPA’s drinking water lifetime health advisory level (HAL) of 70 ppt PFOA ([U.S. EPA 2016]).
This experiment was conducted over two blocks (Block 1 and Block 2) to achieve a total of n=11–13 litters per treatment group and sacrifice time point (E11.5 and E17.5). The experimental design of the second block was identical to the first block of the study, and experimental methods were similar but expanded upon to include more rigorous and detailed measurements. Copulatory plug–positive mice (E0.5) were weighed to obtain a baseline BW and placed into one of five groups. Once all mice were assigned to groups, mean BWs were calculated, and a few animals were reassigned so that mean BWs in each group were similar. This was done to avoid confounding effects of baseline BW. Treatment groups were then randomly assigned a color by using a random sequence generator. Experimenters and dosing technicians were blinded to the treatment group to which the color groups corresponded throughout the duration of the study, including at necropsy. […] Pregnant dams were dosed via oral gavage from E1.5 to E11.5 or from E1.5 to E17.5. […] The E11.5 early-gestation time point was selected because it overlaps a critical period of placental development in the mouse where the placenta undergoes vascularization with the uterine wall and chorioallantoic branching of vessels begins ([Watson and Cross 2005]). The E17.5 late-gestation time point was selected so that embryo weight changes that may be related to treatment would be evident.
On the day of necropsy, dams received daily oral gavage between 0700 and 0800 hours and were weighed and then euthanized humanely by swift decapitation, and serum was collected. In Block 1, necropsies were completed from 0800 to 1600 hours, and in Block 2, necropsies were completed from 0800 to 1200 hours. Serum from dams euthanized in Block 1 was snap frozen for internal dosimetry analyses. Serum and urine from Block 2 dams were reserved for clinical chemistry analyses. In both blocks, the uterus was removed, and total implantation sites were counted based on gross observation of an implantation nodule along the uterine horn. Viable embryos, nonviable embryos, and sites of resorption were counted based on gross observation. Embryos were considered viable if they were properly formed, were not pale in color, and were of similar size to neighboring embryos. Embryos that were poorly formed and pale in color (without heartbeat) were considered nonviable. Sites of resorption were defined as a dark red–appearing clot-like nodule apparent on gross observation.
From each uterus, first, viable embryos and their matched placentas were collected in succession within a horn and immediately snap frozen ( n=2–5 per litter ), and subsequent embryos were collected for growth measurements ( n=2–11 per litter ). […]

embryo–placenta unit = assay: Embryo/placental growth metrics (mixed-effect models); assay type: in vivo, mouse (CD-1)
Description: From each uterus, first, viable embryos and their matched placentas were collected in succession within a horn and immediately snap frozen ( n=2–5 per litter ), and subsequent embryos were collected for growth measurements ( n=2–11 per litter ). Additional placentas were collected and placed in 4% paraformaldehyde (PFA) for histological analysis (Block 2 only). Amniotic fluid was collected by needle aspiration from litters euthanized at E11.5 and snap frozen in liquid nitrogen. Embryo livers were collected from litters euthanized at E17.5 and snap frozen in liquid nitrogen. Dam livers were weighed, a portion of the left lateral lobe was placed in 4% PFA for histology, and another portion of the same lobe was snap frozen in liquid nitrogen. A third liver section was obtained from Block 2 dams and fixed in McDowell and Trump’s fixative for electron microscopy (EM). Gross lesions were collected when observed and placed in 4% PFA for histology. Dam kidneys were removed, a cross section was prepared from the right kidney, a longitudinal section was prepared from the left kidney, and both sections were fixed in 4% PFA for histological analysis.
Gross observations were recorded at necropsy. Embryo sex was determined by polymerase chain reaction (PCR) amplification of the Sry gene (forward, 5′-[…]-3′, and reverse, 3′-[…]-5′) using a snipped portion of tissue (TransnetYX®, Inc.). Embryos and their placentas were weighed separately as wet tissue. Images of embryos were obtained on a Leica Z16 APO imaging scope, and embryo length was measured as snout-to-rump distance using FIJI ([Schindelin et al. 2012]) and Zen 2 Blue (Zeiss).
Embryo and placental metrics were analyzed using mixed-effect models and included a priori fixed effects of treatment group and litter size and a random-effects term for the dam using the lme4 package. Embryo and placental metrics included embryo weight, embryo length, placental weight, and embryo:placenta weight ratios, a meaningful predictor of fetal birth outcomes in humans ([Hayward et al. 2016]). To account for potential introduction of random effects, the study block (Block 1 or Block 2) and experimenter handling of embryo/placental tissues (Experimenter A or Experimenter B) were included as additional random effects. Models were fit in a stepwise procedure for random effects, and final models included treatment group and litter size as fixed effects using the lmerTest package ([Kuznetsova et al. 2017]). All final models included dam as a random effect but were allowed to vary in the inclusion of experimenter and experimental block random effects based on likelihood ratio test results. Point estimates and 95% CIs were determined from the final model using the Wald method. The number of individual observations for each outcome (embryo weight, placenta weight, and embryo:placenta weight ratio) and the number of litters evaluated in the mixed-effect models are shown in Table S1.

[2] = set-up: method as in Gannon et al. 2016; settings: mice; ref Gannon et al. 2016; cited from earlier work
[3] = set-up: method as in Olsen et al. 2007; settings: ref Olsen et al. 2007; cited from earlier work

Compound: N.O=C(O)C(F)(OC(F)(F)C(F)(F)C(F)(F)F)C(F)(F)F (centres unmarked) [GenX, ammonium 2,3,3,3-tetrafluoro-2-(heptafluoropropoxy)propanoate]
- LOAEL [1]: 2 mg/kg/day
- Embryo length, adjusted estimate (95% CI) (embryo–placenta unit; E11.5, 2 mg/kg/d): 17.6 (14.7, 20.5) mm
- Embryo weight, adjusted estimate (95% CI) (embryo–placenta unit; E11.5, 2 mg/kg/d): 49.9 (16.7, 83.1) mg
- Placental weight, adjusted estimate (95% CI) (embryo–placenta unit; E11.5, 2 mg/kg/d): 34.0 (0.1, 67.8) mg
- Embryo length, adjusted estimate (95% CI) (embryo–placenta unit; E11.5, 10 mg/kg/d): 17.4 (14.5, 20.3) mm
- Embryo weight, adjusted estimate (95% CI) (embryo–placenta unit; E11.5, 10 mg/kg/d): 45.2 (12.0, 78.3) mg
- Placental weight, adjusted estimate (95% CI) (embryo–placenta unit; E11.5, 10 mg/kg/d): 38.4 (4.5, 72.2) mg
- Embryo length, adjusted estimate (95% CI) (embryo–placenta unit; E17.5, 2 mg/kg/d): 32.7 (28.7, 36.6) mm
- Embryo weight, adjusted estimate (95% CI) (embryo–placenta unit; E17.5, 2 mg/kg/d): 1369.8 (1111.3, 1628.4) mg
- Placental weight, adjusted estimate (95% CI) (embryo–placenta unit; E17.5, 2 mg/kg/d): 137.1 (105.6, 168.6) mg
- Embryo length, adjusted estimate (95% CI) (embryo–placenta unit; E17.5, 10 mg/kg/d): 33.8 (29.8, 37.7) mm
- Embryo weight, adjusted estimate (95% CI) (embryo–placenta unit; E17.5, 10 mg/kg/d): 1337.0 (1077.5, 1596.4) mg
- Placental weight, adjusted estimate (95% CI) (embryo–placenta unit; E17.5, 10 mg/kg/d): 146.3 (114.7, 177.9) mg
- Elimination half-life [2]: ~20 h

Compound: O=C(O)C(F)(F)C(F)(F)C(F)(F)C(F)(F)C(F)(F)C(F)(F)C(F)(F)F [PFOA, Perfluorooctanoic acid]
- Human half-life [3]: ~3.5 y
- Embryo weight decrease relative to controls (embryo–placenta unit; 5 mg/kg/d): 9.4%
- Embryo length, adjusted estimate (95% CI) (embryo–placenta unit; E11.5, 1 mg/kg/d): 17.5 (14.5, 20.4) mm
- Embryo weight, adjusted estimate (95% CI) (embryo–placenta unit; E11.5, 1 mg/kg/d): 44.7 (11.1, 78.2) mg
- Embryo:Placental Weight Ratio, adjusted estimate (95% CI) (embryo–placenta unit; E11.5, 1 mg/kg/d): 1.19 (0.62, 1.76)
- Placental weight, adjusted estimate (95% CI) (embryo–placenta unit; E11.5, 1 mg/kg/d): 30.5 (-3.8, 64.7) mg
- Embryo length, adjusted estimate (95% CI) (embryo–placenta unit; E11.5, 5 mg/kg/d): 18.5 (15.6, 21.4) mm
- Embryo weight, adjusted estimate (95% CI) (embryo–placenta unit; E11.5, 5 mg/kg/d): 45.3 (11.8, 78.7) mg
- Embryo:Placental Weight Ratio, adjusted estimate (95% CI) (embryo–placenta unit; E11.5, 5 mg/kg/d): 1.21 (0.64, 1.77)
- Placental weight, adjusted estimate (95% CI) (embryo–placenta unit; E11.5, 5 mg/kg/d): 31.2 (-2.9, 65.3) mg
- Embryo length, adjusted estimate (95% CI) (embryo–placenta unit; E17.5, 1 mg/kg/d): 33.6 (29.6, 37.6) mm
- Embryo weight, adjusted estimate (95% CI) (embryo–placenta unit; E17.5, 1 mg/kg/d): 1350.7 (1091.9, 1609.4) mg
- Embryo:Placental Weight Ratio, adjusted estimate (95% CI) (embryo–placenta unit; E17.5, 1 mg/kg/d): 11.1 (8.0, 14.3)
- Placental weight, adjusted estimate (95% CI) (embryo–placenta unit; E17.5, 1 mg/kg/d): 129.7 (98.2, 161.2) mg
- Embryo BW lower than vehicle control embryos (mixed-effect model estimate) (embryo–placenta unit; E17.5, 5 mg/kg/d): 129 mg
- Embryo length, adjusted estimate (95% CI) (embryo–placenta unit; E17.5, 5 mg/kg/d): 31.2 (27.2 35.3) mm
- Embryo weight, adjusted estimate (95% CI) (embryo–placenta unit; E17.5, 5 mg/kg/d): 1249.5 (991.0, 1508.0) mg
- Embryo:Placental Weight Ratio, adjusted estimate (95% CI) (embryo–placenta unit; E17.5, 5 mg/kg/d): 8.5 (5.4, 11.6)
- Estimated increase in placental weight relative to controls (embryo–placenta unit; E17.5, 5 mg/kg/d): 21 mg
- Placental weight, adjusted estimate (95% CI) (embryo–placenta unit; E17.5, 5 mg/kg/d): 151.9 (120.5, 183.4) mg
- Shift in embryo weight (embryo–placenta unit; E17.5, 5 mg/kg/d): -0.129 g
